Measured values taken from patent publication US9663473B2 (Actelion Pharmaceuticals Ltd, priority 2013, dated 2017).

The molecules below were run against T1, recombinant human ALX receptor (Homo sapiens, UniProt P25090) (assay: Intracellular calcium measurements (FLIPR), ALX receptor agonistic activity). Details: HEK293-hALXR-Gα16 cells, Fluo-4 calcium signal, normalized to WKYMVm 10 nM.
T1 construct: expressed in transfected cells; host or cells: HEK293 (HEK293-hALXR-Gα16)
T1 sequence (P25090 1-351): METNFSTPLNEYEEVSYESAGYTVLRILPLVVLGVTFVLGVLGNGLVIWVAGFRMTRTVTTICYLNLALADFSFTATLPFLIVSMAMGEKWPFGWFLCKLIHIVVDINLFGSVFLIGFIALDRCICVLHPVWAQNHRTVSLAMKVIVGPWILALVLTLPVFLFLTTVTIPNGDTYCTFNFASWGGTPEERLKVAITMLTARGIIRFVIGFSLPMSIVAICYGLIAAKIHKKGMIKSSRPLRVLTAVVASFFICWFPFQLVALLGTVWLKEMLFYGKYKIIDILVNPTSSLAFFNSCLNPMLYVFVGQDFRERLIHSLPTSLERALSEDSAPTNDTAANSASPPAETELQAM
Format: cell-based
How it was run: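 Agonist-induced calcium flux was read by FLIPR (488/540 nm) as baseline-subtracted peak emission, expressed relative to WKYMVm at 10 nM final. Cells used: HEK293-hALXR-Gα16, dye-loaded 60 min at 37° C. with 1 μM Fluo-4 AM before compound dose-response addition.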

SMILES	EC50 [nM]
COc1ccc(C[C@@H](NC(=O)NC2CCN(S(C)(=O)=O)CC2)c2nc3ccccc3[nH]2)cc1 [Example 143, (R)-1-(1-(1H-Benzo[d]imidazol-2-yl)-2-(4-methoxyphenyl)ethyl)-3-(1-(methylsulfonyl)piperidin-4-yl)urea]	108
COc1ccc(C[C@@H](NC(=O)NC2CCC(C)CC2)c2nc3ccccc3[nH]2)cc1 (stereo partly drawn) [Example 22, (R)-1-(1-(1H-Benzo[d]imidazol-2-yl)-2-(4-methoxyphenyl)ethyl)-3-(4-methylcyclohexyl)urea]	85
COc1ccc(CC(NC(=O)N(C)[C@H]2CC[C@H](O)CC2)c2nc3ccccc3[nH]2)cc1 (relative stereo) [Example 76, 3-(1-(1H-Benzo[d]imidazol-2-yl)-2-(4-methoxyphenyl)ethyl)-1-(trans-4-hydroxycyclohexyl)-1-methylurea]	540
COc1cc(F)c(CC(NC(=O)N[C@H]2CC[C@](C)(O)CC2)c2nc3ccccc3[nH]2)cc1F (mixture of isomers) [Example 250, 1-(1-(1H-Benzo[d]imidazol-2-yl)-2-(2,5-difluoro-4-methoxyphenyl)ethyl)-3-(trans-4-hydroxy-4-methylcyclohexyl)urea]	7.2
COc1ccc(CC(NC(=O)NC2CCC2)c2nc3ccccc3[nH]2)cc1 (stereo not shown) [Example 11, 1-(1-(1H-Benzo[d]imidazol-2-yl)-2-(4-methoxyphenyl)ethyl)-3-cyclobutylurea]	62
COc1ccc(C[C@@H](NC(=O)NCCC2CCN(C(=O)OC(C)(C)C)CC2)c2nc3ccccc3[nH]2)cc1 [Example 155, (R)-tert-Butyl 4-(2-(3-(1-(1H-benzo[d]imidazol-2-yl)-2-(4-methoxyphenyl)ethyl)ureido)ethyl)piperidine-1-carboxylate]	489
COc1ccc(C[C@@H](NC(=O)NCc2ccccc2Cl)c2nc3ccccc3[nH]2)cc1 [Example 207, (R)-1-(1-(1H-Benzo[d]imidazol-2-yl)-2-(4-methoxyphenyl)ethyl)-3-(2-chlorobenzyl)urea]	835
COc1ccc(C[C@@H](NC(=O)NCc2ccc(CN(C)C)cc2)c2nc3ccccc3[nH]2)cc1 [Example 272, (R)-1-(1-(1H-Benzo[d]imidazol-2-yl)-2-(4-methoxyphenyl)ethyl)-3-(4-((dimethylamino)methyl)benzyl)urea]	339
COc1ccc(C[C@@H](NC(=O)NCC2CCCCC2)c2nc3ccccc3[nH]2)cc1 [Example 98, (R)-1-(1-(1H-Benzo[d]imidazol-2-yl)-2-(4-methoxyphenyl)ethyl)-3-(cyclohexylmethyl)urea]	432
COc1ccc(CC(NC(=O)NC23CCC(O)(CC2)CC3)c2nc3ccc(F)cc3[nH]2)cc1F (single isomer, unassigned; ent-2) [Example 372, 1-(1-(6-Fluoro-1H-benzo[d]imidazol-2-yl)-2-(3-fluoro-4-methoxyphenyl)ethyl)-3-(4-hydroxybicyclo[2.2.2]octan-1-yl)urea (ent-2)]	769
COc1ccc(C[C@@H](NC(=O)NCCc2cnccn2)c2nc3ccccc3[nH]2)cc1 [Example 285, (R)-1-(1-(1H-Benzo[d]imidazol-2-yl)-2-(4-methoxyphenyl)ethyl)-3-(2-(pyrazin-2-yl)ethyl)urea]	284
COc1ccc(C[C@@H](NC(=O)N[C@H]2CC[C@H](O)CC2)c2nc3ccccc3[nH]2)cc1 [Example 4, 1-((R)-1-(1H-Benzo[d]imidazol-2-yl)-2-(4-methoxyphenyl)ethyl)-3-(trans-4-hydroxycyclohexyl)urea]	7.8
COc1ccc(C[C@@H](NC(=O)N[C@@H]2CCN(C(=O)OC(C)(C)C)C2)c2nc3ccccc3[nH]2)cc1 [Example 118, (R)-tert-Butyl 3-(3-((R)-1-(1H-benzo[d]imidazol-2-yl)-2-(4-methoxyphenyl)ethyl)ureido)pyrrolidine-1-carboxylate]	25
COc1ccc(CC(NC(=O)NCCc2cccc(OC)c2)c2nc3ccccc3[nH]2)cc1 (stereo not shown) [Example 47, 1-(1-(1H-Benzo[d]imidazol-2-yl)-2-(4-methoxyphenyl)ethyl)-3-(3-methoxyphenethyl)urea]	137
O=C(NC(Cc1ccc(Br)c(F)c1)c1nc2ccccc2[nH]1)NC12CCC(O)(CC1)CC2 (single isomer, unassigned; ent-1) [Example 258, 1-(1-(1H-Benzo[d]imidazol-2-yl)-2-(4-bromo-3-fluorophenyl)ethyl)-3-(4-hydroxybicyclo[2.2.2]octan-1-yl)urea (ent-1)]	40
COc1ccc(CC(NC(=O)NC2CCC(C)(O)CC2)c2nc3ccccc3[nH]2)c(F)c1 (single isomer, unassigned; ent-1) [Example 311, 1-(1-(1H-Benzo[d]imidazol-2-yl)-2-(2-fluoro-4-methoxyphenyl)ethyl)-3-(trans-4-hydroxy-4-methylcyclohexyl)urea (ent-1)]	3.6

SMILES	EC50 [nM]
COc1ccc(CC(NC(=O)NC23CCC(O)(CC2)CC3)c2nc3ccc(F)cc3[nH]2)cc1F (single isomer, unassigned; ent-1) [Example 319, 1-(1-(6-Fluoro-1H-benzo[d]imidazol-2-yl)-2-(3-fluoro-4-methoxyphenyl)ethyl)-3-(4-hydroxybicyclo[2.2.2]octan-1-yl)urea (ent-1)]	1
COc1ccc(CC(NC(=O)Nc2ccnn2C)c2nc3ccccc3[nH]2)cc1 (stereo not shown) [Example 418, 1-(1-(1H-benzo[d]imidazol-2-yl)-2-(4-methoxyphenyl)ethyl)-3-(1-methyl-1H-pyrazol-5-yl)urea]	210
COc1ccc(C[C@@H](NC(=O)NCCCCO)c2nc3ccccc3[nH]2)cc1 [Example 96, (R)-1-(1-(1H-Benzo[d]imidazol-2-yl)-2-(4-methoxyphenyl)ethyl)-3-(4-hydroxybutyl)urea]	152
COc1ccc(CC(NC(=O)NCCc2ccccn2)c2nc3ccccc3[nH]2)cc1 (stereo not shown) [Example 8, 1-(1-(1H-Benzo[d]imidazol-2-yl)-2-(4-methoxyphenyl)ethyl)-3-(2-(pyridin-2-yl)ethyl)urea]	593
COc1ccc(CC(NC(=O)Nc2ccnn2-c2ccccc2OC)c2nc3ccccc3[nH]2)cc1 (stereo not shown) [Example 421, 1-(1-(1H-benzo[d]imidazol-2-yl)-2-(4-methoxyphenyl)ethyl)-3-(1-(2-methoxyphenyl)-1H-pyrazol-5-yl)urea]	46
COc1ccc(C[C@@H](NC(=O)NC(C)c2cn3ccsc3n2)c2nc3ccccc3[nH]2)cc1 (stereo partly drawn) [Example 338, 1-((R)-1-(1H-Benzo[d]imidazol-2-yl)-2-(4-methoxyphenyl)ethyl)-3-(1-(imidazo[2,1-b]thiazol-6-yl)ethyl)urea]	36
COc1ccc(C[C@@H](NC(=O)N[C@H]2CC[C@H](O)CC2)c2nc3cc([N+](=O)[O-])ccc3[nH]2)cc1 [Example 148, 1-(trans-4-Hydroxycyclohexyl)-3-((R)-2-(4-methoxyphenyl)-1-(5-nitro-1H-benzo[d]imidazol-2-yl)ethyl)urea]	18
O=C(NC(Cc1ccc(C(F)(F)F)cc1F)c1nc2ccccc2[nH]1)NC12CCC(O)(CC1)CC2 (single isomer, unassigned; ent-1) [Example 362, 1-(1-(1H-Benzo[d]imidazol-2-yl)-2-(2-fluoro-4-(trifluoromethyl)phenyl)ethyl)-3-(4-hydroxybicyclo[2.2.2]octan-1-yl)urea (ent-1)]	27
COc1ccc(C[C@@H](NC(=O)N[C@@H]2CCc3ccccc32)c2nc3ccccc3[nH]2)cc1 [Example 334, 1-((R)-1-(1H-Benzo[d]imidazol-2-yl)-2-(4-methoxyphenyl)ethyl)-3-((R)-2,3-dihydro-1H-inden-1-yl)urea]	111
COc1ccc(C[C@@H](NC(=O)NCCc2cc(C)ccc2C)c2nc3ccccc3[nH]2)cc1 [Example 306, (R)-1-(1-(1H-Benzo[d]imidazol-2-yl)-2-(4-methoxyphenyl)ethyl)-3-(2,5-dimethylphenethyl)urea]	60
COc1ccc(C[C@@H](NC(=O)NC2CC(C)(C)N(C)C(C)(C)C2)c2nc3ccccc3[nH]2)cc1 [Example 116, (R)-1-(1-(1H-Benzo[d]imidazol-2-yl)-2-(4-methoxyphenyl)ethyl)-3-(1,2,2,6,6-pentamethylpiperidin-4-yl)urea]	63
COc1ccc(C[C@@H](NC(=O)NC2CCC(F)(F)CC2)c2nc3ccccc3[nH]2)cc1 [Example 14, (R)-1-(1-(1H-Benzo[d]imidazol-2-yl)-2-(4-methoxyphenyl)ethyl)-3-(4,4-difluorocyclohexyl)urea]	38
COc1ccc(C[C@@H](NC(=O)NC(C)c2ccc(OC(F)F)cc2)c2nc3ccccc3[nH]2)cc1 (stereo partly drawn) [Example 271, 1-((R)-1-(1H-Benzo[d]imidazol-2-yl)-2-(4-methoxyphenyl)ethyl)-3-(1-(4-(difluoromethoxy)phenyl)ethyl)urea]	120
COc1ccc(C[C@@H](NC(=O)NC2CCCc3c(OC)cccc32)c2nc3ccccc3[nH]2)cc1 (stereo partly drawn) [Example 346, 1-((R)-1-(1H-Benzo[d]imidazol-2-yl)-2-(4-methoxyphenyl)ethyl)-3-(5-methoxy-1,2,3,4-tetrahydronaphthalen-1-yl)urea]	56
COc1ccc(C[C@@H](NC(=O)Nc2cccnc2)c2nc3ccccc3[nH]2)cc1 [Example 315, (R)-1-(1-(1H-Benzo[d]imidazol-2-yl)-2-(4-methoxyphenyl)ethyl)-3-(pyridin-3-yl)urea]	299
